Inhibition data for 19 compounds are collected here from ChEMBL document CHEMBL5150017, “Mechanism of Action and Structure-Activity Relationship of α-Conotoxin Mr1.1 at the Human α9α10 Nicotinic Acetylcholine Receptor” (J Med Chem, 2022).

SMILES strings stand for the structures. Activity calls are given as the source filed them. The rule behind the calls is not given here. Positions of bridges follow the written chain, without caps; N, C: chain ends. Non-standard residues stand in square brackets, D forms with d. Residues, ends and D or L forms follow the SMILES beside them. ξ: configuration not given here. Cit = NC(=O)NCCC[C@H](N)C(=O)O; Dap = NC[C@H](N)C(=O)O; ξDab = NCCC(N)C(=O)O; ξDap = NCC(N)C(=O)O

The first test deals with Neuronal acetylcholine receptor; alpha9/alpha10 (Homo sapiens) (UniProt Q9UGM1+Q9GZZ6). Briefly: Antagonist activity at human alpha9alpha10 nAChR expressed in Xenopus laevis oocytes assessed as inhibition of ACh-induced current amplitude at -80 mV holding potential at 100 nM by two-electrode voltage clamp method. The class given is cell-based. The conditions noted are these: Oocyte.
For `CC[C@H](C)[C@@H]1NC(=O)[C@H](CC(=O)O)NC(=O)[C@@H]2CCCN2C(=O)[C@H](CC(N)=O)NC(=O)[C@H](CC(N)=O)NC(=O)[C@H](CC(=O)O)NC(=O)[C@H](CO)NC(=O)[C@@H]2CSSC[C@H](NC(=O)CN)C(=O)N[C@@H](CSSC[C@@H](C(N)=O)NC1=O)C(=O)N[C@@H](CO)C(=O)N[C@@H](Cc1cnc[nH]1)C(=O)N1CCC[C@H]1C(=O)N[C@@H](C)C(=O)N2` (H-GCCSHPACSDNNPDIC-NH2; disulfide 2-8, 3-16), the inhibition (in general, the share of the control response that was lost under treatment) was < 5%. Same read-out and setting: next, `CC[C@H](C)[C@@H]1NC(=O)[C@H](CC(=O)O)NC(=O)[C@@H]2CCCN2C(=O)[C@H](CC(N)=O)NC(=O)[C@H](CC(N)=O)NC(=O)[C@H](CCCCN)NC(=O)[C@H](CO)NC(=O)[C@@H]2CSSC[C@H](NC(=O)CN)C(=O)N[C@@H](CSSC[C@@H](C(N)=O)NC1=O)C(=O)N[C@@H](CO)C(=O)N[C@@H](Cc1cnc[nH]1)C(=O)N1CCC[C@H]1C(=O)N[C@@H](C)C(=O)N2` (H-GCCSHPACSKNNPDIC-NH2; disulfide 2-8, 3-16): < 5%. As to `CC[C@H](C)[C@@H]1NC(=O)[C@H](CC(=O)O)NC(=O)[C@@H]2CCCN2C(=O)[C@H](CC(N)=O)NC(=O)[C@H](CC(N)=O)NC(=O)[C@H](C(C)C)NC(=O)[C@H](CO)NC(=O)[C@@H]2CSSC[C@H](NC(=O)CN)C(=O)N[C@@H](CSSC[C@@H](C(=O)N[C@@H](CC(C)C)C(N)=O)NC1=O)C(=O)N[C@@H](CO)C(=O)N[C@@H](Cc1cnc[nH]1)C(=O)N1CCC[C@H]1C(=O)N[C@@H](C)C(=O)N2` (H-GCCSHPACSVNNPDICL-NH2; disulfide 2-8, 3-16), the inhibition is 15%. On the same count and under the same terms, next, `CC[C@H](C)[C@@H]1NC(=O)[C@H](CC(=O)O)NC(=O)[C@@H]2CCCN2C(=O)[C@H](CC(N)=O)NC(=O)[C@H](CC(N)=O)NC(=O)[C@H](C(C)C)NC(=O)[C@H](CO)NC(=O)[C@@H]2CSSC[C@H](NC(=O)CN)C(=O)N[C@@H](CSSC[C@@H](C(=O)N[C@@H](Cc3ccc(O)cc3)C(N)=O)NC1=O)C(=O)N[C@@H](CO)C(=O)N[C@@H](Cc1cnc[nH]1)C(=O)N1CCC[C@H]1C(=O)N[C@@H](C)C(=O)N2` (H-GCCSHPACSVNNPDICY-NH2; disulfide 2-8, 3-16): 15%. Consider `CC[C@H](C)[C@@H]1NC(=O)[C@H](CC(=O)O)NC(=O)[C@@H]2CCCN2C(=O)[C@H](CC(N)=O)NC(=O)[C@H](CC(N)=O)NC(=O)[C@H](CCCNC(N)=O)NC(=O)[C@H](CO)NC(=O)[C@@H]2CSSC[C@H](NC(=O)CN)C(=O)N[C@@H](CSSC[C@@H](C(N)=O)NC1=O)C(=O)N[C@@H](CO)C(=O)N[C@@H](Cc1cnc[nH]1)C(=O)N1CCC[C@H]1C(=O)N[C@@H](C)C(=O)N2` (H-GCCSHPACS[Cit]NNPDIC-NH2; disulfide 2-8, 3-16), for which the inhibition was < 5%. On the same count and under the same terms, next, `CC[C@H](C)[C@@H]1NC(=O)[C@H](CC(=O)O)NC(=O)[C@@H]2CCCN2C(=O)[C@H](CC(N)=O)NC(=O)[C@H](CC(N)=O)NC(=O)C(CCN)NC(=O)[C@H](CO)NC(=O)[C@@H]2CSSC[C@H](NC(=O)CN)C(=O)N[C@@H](CSSC[C@@H](C(N)=O)NC1=O)C(=O)N[C@@H](CO)C(=O)N[C@@H](Cc1cnc[nH]1)C(=O)N1CCC[C@H]1C(=O)N[C@@H](C)C(=O)N2` (stereo not given in full) (H-GCCSHPACS[ξDab]NNPDIC-NH2; disulfide 2-8, 3-16): 35%. With `CC[C@H](C)[C@@H]1NC(=O)[C@H](CC(=O)O)NC(=O)[C@@H]2CCCN2C(=O)[C@H](CC(N)=O)NC(=O)[C@H](CC(N)=O)NC(=O)[C@H](C(C)C)NC(=O)[C@H](Cc2ccc(O)cc2)NC(=O)[C@@H]2CSSC[C@H](NC(=O)CN)C(=O)N[C@@H](CSSC[C@@H](C(N)=O)NC1=O)C(=O)N[C@@H](CO)C(=O)N[C@@H](Cc1cnc[nH]1)C(=O)N1CCC[C@H]1C(=O)N[C@@H](C)C(=O)N2` (H-GCCSHPACYVNNPDIC-NH2; disulfide 2-8, 3-16), the inhibition stood at 5%. `CC[C@H](C)[C@@H]1NC(=O)[C@H](CC(=O)O)NC(=O)[C@@H]2CCCN2C(=O)[C@H](CC(N)=O)NC(=O)[C@H](CC(N)=O)NC(=O)[C@H](C(C)C)NC(=O)C(CCN)NC(=O)[C@@H]2CSSC[C@H](NC(=O)CN)C(=O)N[C@@H](CSSC[C@@H](C(N)=O)NC1=O)C(=O)N[C@@H](CO)C(=O)N[C@@H](Cc1cnc[nH]1)C(=O)N1CCC[C@H]1C(=O)N[C@@H](C)C(=O)N2` (stereo not given in full) (H-GCCSHPAC[ξDab]VNNPDIC-NH2; disulfide 2-8, 3-16): the inhibition is 15%. On the same count and under the same terms, under `CC[C@H](C)[C@@H]1NC(=O)[C@H](CC(=O)O)NC(=O)[C@@H]2CCCN2C(=O)[C@H](CC(N)=O)NC(=O)[C@H](CC(N)=O)NC(=O)[C@H](C(C)C)NC(=O)[C@H](CO)NC(=O)[C@@H]2CSSC[C@H](NC(=O)CN)C(=O)N[C@@H](CSSC[C@@H](C(N)=O)NC1=O)C(=O)N[C@@H](CO)C(=O)N[C@@H](CCCNC(=N)N)C(=O)N1CCC[C@H]1C(=O)N[C@@H](C)C(=O)N2` (H-GCCSRPACSVNNPDIC-NH2; disulfide 2-8, 3-16) stands 10%; under `CC[C@H](C)[C@@H]1NC(=O)[C@H](CC(=O)O)NC(=O)[C@@H]2CCCN2C(=O)[C@H](CC(N)=O)NC(=O)[C@H](CC(N)=O)NC(=O)[C@H](C(C)C)NC(=O)[C@H](CO)NC(=O)[C@@H]2CSSC[C@H](NC(=O)CN)C(=O)N[C@@H](CSSC[C@@H](C(N)=O)NC1=O)C(=O)N[C@@H]([C@@H](C)O)C(=O)N[C@@H](Cc1cnc[nH]1)C(=O)N1CCC[C@H]1C(=O)N[C@@H](C)C(=O)N2` (H-GCCTHPACSVNNPDIC-NH2; disulfide 2-8, 3-16), 10%.

The same test, now with this note: Oocyte, filed as antagonist.
As for `CC[C@H](C)[C@@H]1NC(=O)[C@H](CC(=O)O)NC(=O)[C@@H]2CCCN2C(=O)[C@H](CC(N)=O)NC(=O)[C@H](CC(N)=O)NC(=O)[C@H](C(C)C)NC(=O)[C@H](CO)NC(=O)[C@@H]2CSSC[C@H](NC(=O)CN)C(=O)N[C@@H](CSSC[C@@H](C(N)=O)NC1=O)C(=O)N[C@@H](CCCNC(=N)N)C(=O)N[C@@H](Cc1cnc[nH]1)C(=O)N1CCC[C@H]1C(=O)N[C@@H](C)C(=O)N2` (H-GCCRHPACSVNNPDIC-NH2; disulfide 2-8, 3-16), the inhibition is > 85%. Same read-out and setting: under `CC[C@H](C)[C@@H]1NC(=O)[C@H](CC(=O)O)NC(=O)[C@@H]2CCCN2C(=O)[C@H](CC(N)=O)NC(=O)[C@H](CC(N)=O)NC(=O)[C@H](CCCNC(=N)N)NC(=O)[C@H](CO)NC(=O)[C@@H]2CSSC[C@H](NC(=O)CN)C(=O)N[C@@H](CSSC[C@@H](C(N)=O)NC1=O)C(=O)N[C@@H](CO)C(=O)N[C@@H](Cc1cnc[nH]1)C(=O)N1CCC[C@H]1C(=O)N[C@@H](C)C(=O)N2` (H-GCCSHPACSRNNPDIC-NH2; disulfide 2-8, 3-16) stands 60%. On to `CC[C@H](C)[C@@H]1NC(=O)[C@H](CC(=O)O)NC(=O)[C@@H]2CCCN2C(=O)[C@H](CC(N)=O)NC(=O)[C@H](CC(N)=O)NC(=O)[C@H](C(C)C)NC(=O)[C@H](CO)NC(=O)[C@@H]2CSSC[C@H](NC(=O)CN)C(=O)N[C@@H](CSSC[C@@H](C(=O)N[C@@H](CCCNC(=N)N)C(N)=O)NC1=O)C(=O)N[C@@H](CO)C(=O)N[C@@H](Cc1cnc[nH]1)C(=O)N1CCC[C@H]1C(=O)N[C@@H](C)C(=O)N2` (H-GCCSHPACSVNNPDICR-NH2; disulfide 2-8, 3-16), for which the inhibition was 60%. In the case of `CC[C@H](C)[C@@H]1NC(=O)[C@H](CC(=O)O)NC(=O)[C@@H]2CCCN2C(=O)[C@H](CC(N)=O)NC(=O)[C@H](CC(N)=O)NC(=O)[C@H](CN)NC(=O)[C@H](CO)NC(=O)[C@@H]2CSSC[C@H](NC(=O)CN)C(=O)N[C@@H](CSSC[C@@H](C(N)=O)NC1=O)C(=O)N[C@@H](CO)C(=O)N[C@@H](Cc1c[nH]cn1)C(=O)N1CCC[C@H]1C(=O)N[C@@H](C)C(=O)N2` (H-GCCSHPACS[Dap]NNPDIC-NH2; disulfide 2-8, 3-16), the inhibition result is “Active”. Take `CC[C@H](C)[C@@H]1NC(=O)[C@H](CC(=O)O)NC(=O)[C@@H]2CCCN2C(=O)[C@H](CC(N)=O)NC(=O)[C@H](CC(N)=O)NC(=O)C(CCN)NC(=O)[C@H](CO)NC(=O)[C@@H]2CSSC[C@H](NC(=O)CN)C(=O)N[C@@H](CSSC[C@@H](C(N)=O)NC1=O)C(=O)N[C@@H](CO)C(=O)N[C@@H](Cc1cnc[nH]1)C(=O)N1CCC[C@H]1C(=O)N[C@@H](C)C(=O)N2` (stereo not given in full) (H-GCCSHPACS[ξDab]NNPDIC-NH2; disulfide 2-8, 3-16): the inhibition entry was “Active”. Turning to `CC[C@H](C)[C@@H]1NC(=O)[C@H](CC(=O)O)NC(=O)[C@@H]2CCCN2C(=O)[C@H](CC(N)=O)NC(=O)[C@H](CC(N)=O)NC(=O)C(CN)NC(=O)[C@H](CO)NC(=O)[C@@H]2CSSC[C@H](NC(=O)CN)C(=O)N[C@@H](CSSC[C@@H](C(N)=O)NC1=O)C(=O)N[C@@H](CO)C(=O)N[C@@H](Cc1cnc[nH]1)C(=O)N1CCC[C@H]1C(=O)N[C@@H](C)C(=O)N2` (stereo not given in full) (H-GCCSHPACS[ξDap]NNPDIC-NH2; disulfide 2-8, 3-16), the inhibition is > 90%. As to `CC[C@H](C)[C@@H]1NC(=O)[C@H](CC(=O)O)NC(=O)[C@@H]2CCCN2C(=O)[C@H](CC(N)=O)NC(=O)[C@H](CC(N)=O)NC(=O)[C@H](C(C)C)NC(=O)[C@H](CN)NC(=O)[C@@H]2CSSC[C@H](NC(=O)CN)C(=O)N[C@@H](CSSC[C@@H](C(N)=O)NC1=O)C(=O)N[C@@H](CO)C(=O)N[C@@H](Cc1c[nH]cn1)C(=O)N1CCC[C@H]1C(=O)N[C@@H](C)C(=O)N2` (H-GCCSHPAC[Dap]VNNPDIC-NH2; disulfide 2-8, 3-16), the inhibition result was “Active”. Same read-out and setting: under `CC[C@H](C)[C@@H]1NC(=O)[C@H](CC(=O)O)NC(=O)[C@@H]2CCCN2C(=O)[C@H](CC(N)=O)NC(=O)[C@H](CC(N)=O)NC(=O)[C@H](C(C)C)NC(=O)C(CN)NC(=O)[C@@H]2CSSC[C@H](NC(=O)CN)C(=O)N[C@@H](CSSC[C@@H](C(N)=O)NC1=O)C(=O)N[C@@H](CO)C(=O)N[C@@H](Cc1cnc[nH]1)C(=O)N1CCC[C@H]1C(=O)N[C@@H](C)C(=O)N2` (stereo not given in full) (H-GCCSHPAC[ξDap]VNNPDIC-NH2; disulfide 2-8, 3-16) stands 80%; under `CC[C@H](C)[C@@H]1NC(=O)[C@H](CC(=O)O)NC(=O)[C@@H]2CCCN2C(=O)[C@H](CC(N)=O)NC(=O)[C@H](CC(N)=O)NC(=O)[C@H](C(C)C)NC(=O)[C@H](CO)NC(=O)[C@@H]2CSSC[C@H](NC(=O)CN)C(=O)N[C@@H](CSSC[C@@H](C(N)=O)NC1=O)C(=O)NC(CCN)C(=O)N[C@@H](Cc1cnc[nH]1)C(=O)N1CCC[C@H]1C(=O)N[C@@H](C)C(=O)N2` (stereo not given in full) (H-GCC[ξDab]HPACSVNNPDIC-NH2; disulfide 2-8, 3-16), > 85%; under `CC[C@H](C)[C@@H]1NC(=O)[C@H](CC(=O)O)NC(=O)[C@@H]2CCCN2C(=O)[C@H](CC(N)=O)NC(=O)[C@H](CC(N)=O)NC(=O)C(CN)NC(=O)[C@H](CO)NC(=O)[C@@H]2CSSC[C@H](NC(=O)CN)C(=O)N[C@@H](CSSC[C@@H](C(N)=O)NC1=O)C(=O)NC(CN)C(=O)N[C@@H](Cc1cnc[nH]1)C(=O)N1CCC[C@H]1C(=O)N[C@@H](C)C(=O)N2` (stereo not given in full) (H-GCC[ξDap]HPACS[ξDap]NNPDIC-NH2; disulfide 2-8, 3-16), > 95%.
